Data taken from the supplement of paper PMC10307832.

Legend:
Test in all cases: relative viability (nuclei count vs DMSO), 5 days (fraction); higher = more cells survive
201T = tested on: 201T
In short: (§1)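 Lung cancer cell lines, seeded in 1536-well plates, were treated the following day by pin tool with a single drug or with five library-drug doses (not always all listed) in √10 steps on top of a fixed anchor-drug dose. Cells were fixed and nuclei stained in one step after 5 days, and nuclei were counted. Relative viability is the nuclei count for treated wells divided by that for vehicle wells, reported as medians of duplicate plates.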

A-427 = tested on: A-427
In short: as §1

BEN = tested on: BEN
In short: as §1

COR-L 105 = tested on: COR-L 105
In short: as §1

COR-L23 = tested on: COR-L23
In short: as §1

EKVX = tested on: EKVX
In short: as §1

EMC-BAC-2 = tested on: EMC-BAC-2
In short: as §1

HCC-15 = tested on: HCC-15
In short: as §1

HCC-366 = tested on: HCC-366
In short: as §1

HCC-78 = tested on: HCC-78
In short: as §1

HOP-62 = tested on: HOP-62
In short: as §1

LK-2 = tested on: LK-2
In short: as §1

NCI-H1563 = tested on: NCI-H1563
In short: as §1

NCI-H1734 = tested on: NCI-H1734
In short: as §1

NCI-H1915 = tested on: NCI-H1915
In short: as §1

NCI-H1993 = tested on: NCI-H1993
In short: as §1

NCI-H2405 = tested on: NCI-H2405
In short: as §1

NCI-H460 = tested on: NCI-H460
In short: as §1

NCI-H647 = tested on: NCI-H647
In short: as §1

NCI-H661 = tested on: NCI-H661
In short: as §1

PC-14 = tested on: PC-14
In short: as §1

SK-MES-1 = tested on: SK-MES-1
In short: as §1

Compound: CN1CCN(CCOc2cc(OC3CCOCC3)c3c(Nc4c(Cl)ccc5c4OCO5)ncnc3c2)CC1 [Saracatinib] + C[C@]1(O)C[C@@H](c2nc(-c3ccc4ccc(-c5ccccc5)nc4c3)c3c(N)nccn32)C1 [Linsitinib] (partner 1 µM)
- relative viability (201T; first compound 0.02 µM): 1.05
- relative viability (201T; first compound 0.2 µM): 0.927
- relative viability (201T; first compound 0.6325 µM): 0.91
- relative viability (201T; first compound 2 µM): 0.809
- relative viability (A-427; first compound 0.02 µM): 1.03
- relative viability (A-427; first compound 0.2 µM): 1.08
- relative viability (A-427; first compound 0.6325 µM): 1.12
- relative viability (A-427; first compound 2 µM): 1.11
- relative viability (BEN; first compound 0.02 µM): 0.991
- relative viability (BEN; first compound 0.2 µM): 0.914
- relative viability (BEN; first compound 0.6325 µM): 1.15
- relative viability (BEN; first compound 2 µM): 0.64
- relative viability (COR-L 105; first compound 0.02 µM): 0.872
- relative viability (COR-L 105; first compound 0.2 µM): 1.02
- relative viability (COR-L 105; first compound 0.6325 µM): 0.63
- relative viability (COR-L 105; first compound 2 µM): 0.58
- relative viability (COR-L23; first compound 0.02 µM): 0.86
- relative viability (COR-L23; first compound 0.2 µM): 0.558
- relative viability (COR-L23; first compound 0.6325 µM): 0.789
- relative viability (COR-L23; first compound 2 µM): 0.584
- relative viability (EKVX; first compound 0.02 µM): 0.988
- relative viability (EKVX; first compound 0.2 µM): 0.861
- relative viability (EKVX; first compound 0.6325 µM): 0.866
- relative viability (EKVX; first compound 2 µM): 0.318
- relative viability (EMC-BAC-2; first compound 0.02 µM): 0.813
- relative viability (EMC-BAC-2; first compound 0.2 µM): 0.775
- relative viability (EMC-BAC-2; first compound 0.6325 µM): 0.642
- relative viability (EMC-BAC-2; first compound 2 µM): 0.497
- relative viability (HCC-15; first compound 0.02 µM): 0.911
- relative viability (HCC-15; first compound 0.2 µM): 0.84
- relative viability (HCC-15; first compound 0.6325 µM): 0.86
- relative viability (HCC-15; first compound 2 µM): 0.726
- relative viability (HCC-366; first compound 0.02 µM): 0.607
- relative viability (HCC-366; first compound 0.6325 µM): 0.283
- relative viability (HCC-366; first compound 2 µM): 0.13
- relative viability (HCC-78; first compound 0.02 µM): 0.52
- relative viability (HCC-78; first compound 0.2 µM): 0.505
- relative viability (HCC-78; first compound 0.6325 µM): 0.753
- relative viability (HCC-78; first compound 2 µM): 0.497
- relative viability (HOP-62; first compound 0.02 µM): 1.02
- relative viability (HOP-62; first compound 0.2 µM): 0.731
- relative viability (HOP-62; first compound 0.6325 µM): 1.35
- relative viability (HOP-62; first compound 2 µM): 1.01
- relative viability (LK-2; first compound 0.02 µM): 0.52
- relative viability (LK-2; first compound 0.2 µM): 0.484
- relative viability (LK-2; first compound 0.6325 µM): 0.375
- relative viability (LK-2; first compound 2 µM): 0.3
- relative viability (NCI-H1563; first compound 0.02 µM): 1.09
- relative viability (NCI-H1563; first compound 0.2 µM): 1.16
- relative viability (NCI-H1563; first compound 0.6325 µM): 1.05
- relative viability (NCI-H1563; first compound 2 µM): 0.891
- relative viability (NCI-H1734; first compound 0.02 µM): 0.908
- relative viability (NCI-H1734; first compound 0.6325 µM): 0.713
- relative viability (NCI-H1734; first compound 2 µM): 0.751
- relative viability (NCI-H1915; first compound 0.02 µM): 1.1
- relative viability (NCI-H1915; first compound 0.2 µM): 1.03
- relative viability (NCI-H1915; first compound 0.6325 µM): 1.07
- relative viability (NCI-H1915; first compound 2 µM): 1.07
- relative viability (NCI-H1993; first compound 0.02 µM): 0.682
- relative viability (NCI-H1993; first compound 0.2 µM): 0.715
- relative viability (NCI-H1993; first compound 2 µM): 0.621
- relative viability (NCI-H2405; first compound 0.02 µM): 0.87
- relative viability (NCI-H2405; first compound 0.2 µM): 0.829
- relative viability (NCI-H2405; first compound 0.6325 µM): 0.466
- relative viability (NCI-H2405; first compound 2 µM): 0.372
- relative viability (NCI-H460; first compound 0.02 µM): 0.716
- relative viability (NCI-H460; first compound 0.2 µM): 0.664
- relative viability (NCI-H460; first compound 0.6325 µM): 0.329
- relative viability (NCI-H460; first compound 2 µM): 0.181
- relative viability (NCI-H647; first compound 0.02 µM): 1.05
- relative viability (NCI-H647; first compound 0.2 µM): 0.943
- relative viability (NCI-H647; first compound 0.6325 µM): 1.14
- relative viability (NCI-H647; first compound 2 µM): 0.514
- relative viability (NCI-H661; first compound 0.02 µM): 0.525
- relative viability (NCI-H661; first compound 0.2 µM): 0.598
- relative viability (NCI-H661; first compound 0.6325 µM): 0.571
- relative viability (NCI-H661; first compound 2 µM): 0.376
- relative viability (PC-14; first compound 0.02 µM): 0.952
- relative viability (PC-14; first compound 0.2 µM): 0.708
- relative viability (PC-14; first compound 0.6325 µM): 0.304
- relative viability (PC-14; first compound 2 µM): 0.166
- relative viability (SK-MES-1; first compound 0.02 µM): 0.934
- relative viability (SK-MES-1; first compound 0.2 µM): 0.903
- relative viability (SK-MES-1; first compound 0.6325 µM): 0.87
- relative viability (SK-MES-1; first compound 2 µM): 0.471

Compound: Nc1cccc2c1CN(C1CCC(=O)NC1=O)C2=O (stereo not given) [Lenalidomide] + Cc1nc(NC(=O)N2CCC[C@H]2C(N)=O)sc1-c1ccnc(C(C)(C)C(F)(F)F)c1 [Alpelisib] (partner 2 µM)
- relative viability (201T; first compound 0.253 µM): 1.11
- relative viability (201T; first compound 0.8 µM): 1.15
- relative viability (201T; first compound 2.53 µM): 1.06
- relative viability (201T; first compound 8 µM): 0.984
- relative viability (A-427; first compound 0.253 µM): 1.11
- relative viability (A-427; first compound 2.53 µM): 1.09
- relative viability (A-427; first compound 8 µM): 1.02
- relative viability (BEN; first compound 0.253 µM): 1.05
- relative viability (BEN; first compound 0.8 µM): 1.01
- relative viability (BEN; first compound 2.53 µM): 1.16
- relative viability (BEN; first compound 8 µM): 0.788
- relative viability (COR-L 105; first compound 0.253 µM): 0.982
- relative viability (COR-L 105; first compound 0.8 µM): 0.81
- relative viability (COR-L 105; first compound 2.53 µM): 1.07
- relative viability (COR-L 105; first compound 8 µM): 0.994
- relative viability (COR-L23; first compound 0.253 µM): 0.798
- relative viability (COR-L23; first compound 0.8 µM): 0.794
- relative viability (COR-L23; first compound 2.53 µM): 0.784
- relative viability (COR-L23; first compound 8 µM): 0.875
- relative viability (EKVX; first compound 0.253 µM): 0.803
- relative viability (EKVX; first compound 0.8 µM): 0.95
- relative viability (EKVX; first compound 2.53 µM): 0.931
- relative viability (EKVX; first compound 8 µM): 0.772
- relative viability (EMC-BAC-2; first compound 0.253 µM): 0.691
- relative viability (EMC-BAC-2; first compound 0.8 µM): 0.706
- relative viability (EMC-BAC-2; first compound 2.53 µM): 0.762
- relative viability (EMC-BAC-2; first compound 8 µM): 0.625
- relative viability (HCC-15; first compound 0.253 µM): 1.02
- relative viability (HCC-15; first compound 2.53 µM): 0.886
- relative viability (HCC-15; first compound 8 µM): 0.865
- relative viability (HCC-366; first compound 0.253 µM): 0.402
- relative viability (HCC-366; first compound 0.8 µM): 0.336
- relative viability (HCC-366; first compound 2.53 µM): 0.549
- relative viability (HCC-366; first compound 8 µM): 0.324
- relative viability (HCC-78; first compound 0.253 µM): 0.381
- relative viability (HCC-78; first compound 0.8 µM): 0.339
- relative viability (HCC-78; first compound 2.53 µM): 0.314
- relative viability (HCC-78; first compound 8 µM): 0.209
- relative viability (HOP-62; first compound 0.253 µM): 0.983
- relative viability (HOP-62; first compound 0.8 µM): 1.08
- relative viability (HOP-62; first compound 2.53 µM): 0.984
- relative viability (HOP-62; first compound 8 µM): 0.828
- relative viability (LK-2; first compound 0.253 µM): 1.11
- relative viability (LK-2; first compound 2.53 µM): 1.09
- relative viability (LK-2; first compound 8 µM): 1.03
- relative viability (NCI-H1563; first compound 0.253 µM): 0.843
- relative viability (NCI-H1563; first compound 0.8 µM): 0.908
- relative viability (NCI-H1563; first compound 2.53 µM): 0.829
- relative viability (NCI-H1563; first compound 8 µM): 0.87
- relative viability (NCI-H1734; first compound 0.253 µM): 0.669
- relative viability (NCI-H1734; first compound 0.8 µM): 0.757
- relative viability (NCI-H1734; first compound 2.53 µM): 0.746
- relative viability (NCI-H1734; first compound 8 µM): 0.608
- relative viability (NCI-H1915; first compound 0.253 µM): 0.984
- relative viability (NCI-H1915; first compound 0.8 µM): 1.07
- relative viability (NCI-H1915; first compound 2.53 µM): 1.13
- relative viability (NCI-H1915; first compound 8 µM): 1.07
- relative viability (NCI-H1993; first compound 0.253 µM): 0.744
- relative viability (NCI-H1993; first compound 0.8 µM): 0.734
- relative viability (NCI-H1993; first compound 2.53 µM): 0.683
- relative viability (NCI-H1993; first compound 8 µM): 0.713
- relative viability (NCI-H2405; first compound 0.253 µM): 0.672
- relative viability (NCI-H2405; first compound 0.8 µM): 0.83
- relative viability (NCI-H2405; first compound 2.53 µM): 0.843
- relative viability (NCI-H2405; first compound 8 µM): 0.563
- relative viability (NCI-H460; first compound 0.253 µM): 0.363
- relative viability (NCI-H460; first compound 0.8 µM): 0.492
- relative viability (NCI-H460; first compound 2.53 µM): 0.667
- relative viability (NCI-H460; first compound 8 µM): 0.57
- relative viability (NCI-H647; first compound 0.253 µM): 1.22
- relative viability (NCI-H647; first compound 0.8 µM): 1.14
- relative viability (NCI-H647; first compound 2.53 µM): 1.1
- relative viability (NCI-H647; first compound 8 µM): 1.12
- relative viability (NCI-H661; first compound 0.253 µM): 0.957
- relative viability (NCI-H661; first compound 0.8 µM): 0.447
- relative viability (NCI-H661; first compound 2.53 µM): 0.458
- relative viability (NCI-H661; first compound 8 µM): 0.544
- relative viability (PC-14; first compound 0.253 µM): 0.899
- relative viability (PC-14; first compound 0.8 µM): 0.93
- relative viability (PC-14; first compound 2.53 µM): 0.982
- relative viability (PC-14; first compound 8 µM): 0.9
- relative viability (SK-MES-1; first compound 0.253 µM): 0.908
- relative viability (SK-MES-1; first compound 0.8 µM): 1.02
- relative viability (SK-MES-1; first compound 2.53 µM): 0.975
- relative viability (SK-MES-1; first compound 8 µM): 0.617
